Assay results published in the NIST ThermoML archive (doi:10.1021/je200811n).
± gives the expanded uncertainty stated by the source.

Conditions: Hot wire method

## F/C=C/C(F)(F)F [trans-1,3,3,3-tetrafluoropropene]
312.25 K, 581 kPa, Gas
  thermal conductivity: 0.01478 ± 0.0005 W/m/K
312.31 K, 325 kPa, Gas
  thermal conductivity: 0.01497 ± 0.0005 W/m/K
312.4 K, 200 kPa, Gas
  thermal conductivity: 0.01456 ± 0.00049 W/m/K
312.41 K, 431 kPa, Gas
  thermal conductivity: 0.01481 ± 0.0005 W/m/K
312.43 K, 101 kPa, Gas
  thermal conductivity: 0.0144 ± 0.0005 W/m/K
312.48 K, 326 kPa, Gas
  thermal conductivity: 0.01471 ± 0.0005 W/m/K
312.57 K, 582 kPa, Gas
  thermal conductivity: 0.01477 ± 0.0005 W/m/K
312.62 K, 200 kPa, Gas
  thermal conductivity: 0.0149 ± 0.0005 W/m/K
312.73 K, 430 kPa, Gas
  thermal conductivity: 0.01467 ± 0.0005 W/m/K
312.8 K, 102 kPa, Gas
  thermal conductivity: 0.01504 ± 0.00051 W/m/K
312.83 K, 325 kPa, Gas
  thermal conductivity: 0.01474 ± 0.0005 W/m/K
312.92 K, 584 kPa, Gas
  thermal conductivity: 0.01483 ± 0.0005 W/m/K
312.98 K, 200 kPa, Gas
  thermal conductivity: 0.01488 ± 0.0005 W/m/K
313.1 K, 428 kPa, Gas
  thermal conductivity: 0.01481 ± 0.0005 W/m/K
313.15 K, Liquid
  thermal conductivity: 0.06932 ± 0.00048 W/m/K
313.2 K, 102 kPa, Gas
  thermal conductivity: 0.01509 ± 0.00051 W/m/K
313.2 K, 325 kPa, Gas
  thermal conductivity: 0.01472 ± 0.0005 W/m/K
313.27 K, 585 kPa, Gas
  thermal conductivity: 0.01483 ± 0.0005 W/m/K
313.39 K, 200 kPa, Gas
  thermal conductivity: 0.01487 ± 0.0005 W/m/K
313.49 K, 429 kPa, Gas
  thermal conductivity: 0.01476 ± 0.0005 W/m/K
313.6 K, 325 kPa, Gas
  thermal conductivity: 0.01477 ± 0.0005 W/m/K
313.64 K, 102 kPa, Gas
  thermal conductivity: 0.01508 ± 0.00051 W/m/K
313.67 K, 586 kPa, Gas
  thermal conductivity: 0.01487 ± 0.0005 W/m/K
313.81 K, 200 kPa, Gas
  thermal conductivity: 0.01496 ± 0.0005 W/m/K
313.88 K, 428 kPa, Gas
  thermal conductivity: 0.01479 ± 0.0005 W/m/K
314.02 K, 325 kPa, Gas
  thermal conductivity: 0.01482 ± 0.0005 W/m/K
314.08 K, 101 kPa, Gas
  thermal conductivity: 0.01511 ± 0.00051 W/m/K
314.25 K, 200 kPa, Gas
  thermal conductivity: 0.01496 ± 0.0005 W/m/K
314.56 K, 101 kPa, Gas
  thermal conductivity: 0.01518 ± 0.00051 W/m/K
320.95 K, 10241 kPa, Liquid
  thermal conductivity: 0.07419 ± 0.00082 W/m/K
320.95 K, 15330 kPa, Liquid
  thermal conductivity: 0.07758 ± 0.00086 W/m/K
321 K, 1074 kPa, Liquid
  thermal conductivity: 0.06717 ± 0.00076 W/m/K
321 K, 15328 kPa, Liquid
  thermal conductivity: 0.07747 ± 0.00086 W/m/K
321 K, 15398 kPa, Liquid
  thermal conductivity: 0.07709 ± 0.00085 W/m/K
321 K, 21637 kPa, Liquid
  thermal conductivity: 0.08122 ± 0.00089 W/m/K
321.01 K, 5363 kPa, Liquid
  thermal conductivity: 0.07064 ± 0.00079 W/m/K
321.01 K, 10238 kPa, Liquid
  thermal conductivity: 0.07408 ± 0.00082 W/m/K
321.06 K, 1073 kPa, Liquid
  thermal conductivity: 0.06692 ± 0.00075 W/m/K
321.06 K, 15400 kPa, Liquid
  thermal conductivity: 0.07715 ± 0.00085 W/m/K
321.06 K, 21630 kPa, Liquid
  thermal conductivity: 0.08106 ± 0.00089 W/m/K
321.08 K, 5360 kPa, Liquid
  thermal conductivity: 0.07051 ± 0.00078 W/m/K
321.23 K, 96 kPa, Gas
  thermal conductivity: 0.01565 ± 0.00053 W/m/K
321.24 K, 193 kPa, Gas
  thermal conductivity: 0.01579 ± 0.00053 W/m/K
321.26 K, 302 kPa, Gas
  thermal conductivity: 0.01598 ± 0.00054 W/m/K
321.31 K, 15324 kPa, Liquid
  thermal conductivity: 0.07738 ± 0.00087 W/m/K
321.32 K, 10235 kPa, Liquid
  thermal conductivity: 0.07406 ± 0.00083 W/m/K
321.34 K, 21627 kPa, Liquid
  thermal conductivity: 0.08112 ± 0.00089 W/m/K
321.35 K, 1071 kPa, Liquid
  thermal conductivity: 0.06648 ± 0.00075 W/m/K
321.36 K, 15404 kPa, Liquid
  thermal conductivity: 0.0766 ± 0.00088 W/m/K
321.37 K, 5451 kPa, Liquid
  thermal conductivity: 0.07074 ± 0.00079 W/m/K
321.39 K, 15326 kPa, Liquid
  thermal conductivity: 0.07727 ± 0.00086 W/m/K
321.4 K, 5358 kPa, Liquid
  thermal conductivity: 0.07043 ± 0.00078 W/m/K
321.42 K, 10233 kPa, Liquid
  thermal conductivity: 0.07383 ± 0.00082 W/m/K
321.43 K, 1070 kPa, Liquid
  thermal conductivity: 0.06675 ± 0.00075 W/m/K
321.43 K, 21621 kPa, Liquid
  thermal conductivity: 0.08087 ± 0.00089 W/m/K
321.44 K, 5449 kPa, Liquid
  thermal conductivity: 0.07064 ± 0.00079 W/m/K
321.45 K, 96 kPa, Gas
  thermal conductivity: 0.01549 ± 0.00052 W/m/K
321.45 K, 15400 kPa, Liquid
  thermal conductivity: 0.07716 ± 0.00085 W/m/K
321.46 K, 193 kPa, Gas
  thermal conductivity: 0.01564 ± 0.00053 W/m/K
321.48 K, 301 kPa, Gas
  thermal conductivity: 0.01576 ± 0.00053 W/m/K
321.5 K, 5355 kPa, Liquid
  thermal conductivity: 0.07013 ± 0.00078 W/m/K
321.69 K, 96 kPa, Gas
  thermal conductivity: 0.01537 ± 0.00052 W/m/K
321.69 K, 193 kPa, Gas
  thermal conductivity: 0.01553 ± 0.00052 W/m/K
321.69 K, 301 kPa, Gas
  thermal conductivity: 0.01571 ± 0.00053 W/m/K
321.73 K, 15326 kPa, Liquid
  thermal conductivity: 0.07718 ± 0.00085 W/m/K
321.74 K, 21616 kPa, Liquid
  thermal conductivity: 0.08084 ± 0.00089 W/m/K
321.76 K, 10233 kPa, Liquid
  thermal conductivity: 0.07335 ± 0.00081 W/m/K
321.77 K, 1068 kPa, Liquid
  thermal conductivity: 0.06659 ± 0.00075 W/m/K
321.77 K, 5449 kPa, Liquid
  thermal conductivity: 0.07051 ± 0.00078 W/m/K
321.77 K, 15389 kPa, Liquid
  thermal conductivity: 0.07714 ± 0.00086 W/m/K
321.85 K, 15325 kPa, Liquid
  thermal conductivity: 0.077 ± 0.00086 W/m/K
321.85 K, 21616 kPa, Liquid
  thermal conductivity: 0.08065 ± 0.00089 W/m/K
321.86 K, 5352 kPa, Liquid
  thermal conductivity: 0.07024 ± 0.00078 W/m/K
321.87 K, 1067 kPa, Liquid
  thermal conductivity: 0.06647 ± 0.00074 W/m/K
321.87 K, 5446 kPa, Liquid
  thermal conductivity: 0.07039 ± 0.00078 W/m/K
321.88 K, 10232 kPa, Liquid
  thermal conductivity: 0.07374 ± 0.00082 W/m/K
321.89 K, 15379 kPa, Liquid
  thermal conductivity: 0.07673 ± 0.00085 W/m/K
321.93 K, 96 kPa, Gas
  thermal conductivity: 0.01526 ± 0.00051 W/m/K
321.93 K, 301 kPa, Gas
  thermal conductivity: 0.0156 ± 0.0005 W/m/K
321.94 K, 193 kPa, Gas
  thermal conductivity: 0.01541 ± 0.00052 W/m/K
321.94 K, 862 kPa, Gas
  thermal conductivity: 0.01585 ± 0.00053 W/m/K
321.98 K, 5353 kPa, Liquid
  thermal conductivity: 0.07002 ± 0.00078 W/m/K
322.01 K, 717 kPa, Gas
  thermal conductivity: 0.01564 ± 0.00053 W/m/K
322.18 K, 301 kPa, Gas
  thermal conductivity: 0.01554 ± 0.00052 W/m/K
322.19 K, 193 kPa, Gas
  thermal conductivity: 0.01534 ± 0.00052 W/m/K
322.19 K, 21613 kPa, Liquid
  thermal conductivity: 0.0806 ± 0.00089 W/m/K
322.2 K, 15324 kPa, Liquid
  thermal conductivity: 0.07701 ± 0.00087 W/m/K
322.23 K, 861 kPa, Gas
  thermal conductivity: 0.01583 ± 0.00053 W/m/K
322.24 K, 5447 kPa, Liquid
  thermal conductivity: 0.07031 ± 0.00078 W/m/K
322.25 K, 432 kPa, Gas
  thermal conductivity: 0.01554 ± 0.00052 W/m/K
322.25 K, 1068 kPa, Liquid
  thermal conductivity: 0.06595 ± 0.00074 W/m/K
322.25 K, 10235 kPa, Liquid
  thermal conductivity: 0.0737 ± 0.00082 W/m/K
322.25 K, 15372 kPa, Liquid
  thermal conductivity: 0.07646 ± 0.00086 W/m/K
322.27 K, 889 kPa, Gas
  thermal conductivity: 0.01589 ± 0.00053 W/m/K
322.32 K, 715 kPa, Gas
  thermal conductivity: 0.01567 ± 0.00053 W/m/K
322.32 K, 21607 kPa, Liquid
  thermal conductivity: 0.08044 ± 0.00089 W/m/K
322.34 K, 302 kPa, Gas
  thermal conductivity: 0.01575 ± 0.00053 W/m/K
322.34 K, 15322 kPa, Liquid
  thermal conductivity: 0.0768 ± 0.00086 W/m/K
322.35 K, 5442 kPa, Liquid
  thermal conductivity: 0.07009 ± 0.00078 W/m/K
322.37 K, 5357 kPa, Liquid
  thermal conductivity: 0.07003 ± 0.00078 W/m/K
322.38 K, 1067 kPa, Liquid
  thermal conductivity: 0.06625 ± 0.00074 W/m/K
322.4 K, 10234 kPa, Liquid
  thermal conductivity: 0.07347 ± 0.00082 W/m/K
322.48 K, 588 kPa, Gas
  thermal conductivity: 0.01563 ± 0.00053 W/m/K
322.52 K, 5368 kPa, Liquid
  thermal conductivity: 0.06983 ± 0.00078 W/m/K
322.55 K, 859 kPa, Gas
  thermal conductivity: 0.01582 ± 0.00053 W/m/K
322.57 K, 432 kPa, Gas
  thermal conductivity: 0.01556 ± 0.00052 W/m/K
322.58 K, 886 kPa, Gas
  thermal conductivity: 0.01586 ± 0.00053 W/m/K
322.65 K, 713 kPa, Gas
  thermal conductivity: 0.01571 ± 0.00053 W/m/K
322.69 K, 301 kPa, Gas
  thermal conductivity: 0.01554 ± 0.00052 W/m/K
322.7 K, 21605 kPa, Liquid
  thermal conductivity: 0.08035 ± 0.00089 W/m/K
322.73 K, 15322 kPa, Liquid
  thermal conductivity: 0.07671 ± 0.00085 W/m/K
322.75 K, 5443 kPa, Liquid
  thermal conductivity: 0.07003 ± 0.00079 W/m/K
322.79 K, 1065 kPa, Liquid
  thermal conductivity: 0.06618 ± 0.00074 W/m/K
322.8 K, 10233 kPa, Liquid
  thermal conductivity: 0.07327 ± 0.00081 W/m/K
322.81 K, 193 kPa, Gas
  thermal conductivity: 0.01577 ± 0.00053 W/m/K
